From ChEMBL document CHEMBL3751843, “Development of glycine-α-methyl-proline-containing tripeptides with neuroprotective properties” (Eur J Med Chem, 2016)
Active and inactive are the calls of the source. The rule behind the calls is not given here. Where a SMILES comes first, the peptide text is derived from it. [ ]: non-standard residue; d: D form. αMeP = C[C@@]1(C(=O)O)CCCN1

Legend:
SH-SY5Y [1] = test: Neuroprotective against IFNgamma/LPS stimulated THP1 condition medium-induced neurotoxicity in human SH-SY5Y cells assessed as increase in cytoplasmic IkappaBalpha level pretreated for 1 hr followed by addition of THP1 conditioned medium by western blot analysis; assay type: functional, cell-based
[2] = Metabolic stability in human plasma assessed as half life by HPLC analysis; assay type: ADME, cell-free
SH-SY5Y [3] = test: Neuroprotective against IFNgamma/LPS stimulated THP1 condition medium-induced neurotoxicity in human SH-SY5Y cells assessed as NO production per 10^6 cells at 10 nM for 1 hr followed by addition of THP1 conditioned medium by griess assay (reference value: 3.75 +/- 0.14 micromol/L); assay type: functional
SH-SY5Y [4] = test: Neuroprotective against IFNgamma/LPS stimulated THP1 condition medium-induced neurotoxicity in human SH-SY5Y cells assessed as NO production per 10^6 cells at 100 nM for 1 hr followed by addition of THP1 conditioned medium by griess assay (reference value: 3.75 +/- 0.14 micromol/L); assay type: functional
SH-SY5Y [5] = test: Neuroprotective against IFNgamma/LPS stimulated THP1 condition medium-induced neurotoxicity in human SH-SY5Y cells assessed as NO production per 10^6 cells at 1 uM for 1 hr followed by addition of THP1 conditioned medium by griess assay (reference value: 3.75 +/- 0.14 micromol/L); assay type: functional
SH-SY5Y [6] = test: Neuroprotective against IFNgamma/LPS stimulated THP1 condition medium-induced neurotoxicity in human SH-SY5Y cells assessed as NO production per 10^6 cells at 10 uM for 1 hr followed by addition of THP1 conditioned medium by griess assay (reference value: 3.75 +/- 0.14 micromol/L); assay type: functional
SH-SY5Y [7] = test: Neuroprotective against IFNgamma/LPS stimulated THP1 condition medium-induced neurotoxicity in human SH-SY5Y cells assessed as NO production per 10^6 cells at 100 uM for 1 hr followed by addition of THP1 conditioned medium by griess assay (reference value: 3.75 +/- 0.14 micromol/L); assay type: functional
SH-SY5Y [8] = test: Cytotoxicity against human SH-SY5Y cells at 0.1 to 100 uM after 24 hrs by MTT assay; assay type: cell-based
SH-SY5Y [9] = test: Neuroprotective activity against human SH-SY5Y cells assessed as inhibition of IFNgamma/LPS stimulated THP1 condition medium-induced cytotoxicity measured as cell viability at 100 uM for 1 hr followed by addition of THP1 conditioned medium for 24 hrs by LDH assay relative to control; assay type: functional
SH-SY5Y [10] = test: Neuroprotective against IFNgamma/LPS stimulated THP1 condition medium-induced neurotoxicity in human SH-SY5Y cells assessed as decrease in apoptosis at 100 uM for 1 hr followed by addition of THP1 conditioned medium by annexinV/PI staining based flow cytometry; assay type: functional, cell-based
SH-SY5Y [11] = test: Neuroprotective against IFNgamma/LPS stimulated THP1 condition medium-induced neurotoxicity in human SH-SY5Y cells assessed as reduced iNOS activity at 100 uM pretreated for 1 hr followed by addition of THP1 conditioned medium; assay type: functional, cell-based
SH-SY5Y [12] = test: Neuroprotective against IFNgamma/LPS stimulated THP1 condition medium-induced neurotoxicity in human SH-SY5Y cells assessed as decrease in iNOS expression at 100 uM pretreated for 1 hr followed by addition of THP1 conditioned medium by western blot analysis; assay type: functional, cell-based
SH-SY5Y [13] = test: Neuroprotective against IFNgamma/LPS stimulated THP1 condition medium-induced neurotoxicity in human SH-SY5Y cells assessed as increase in nNOS expression at 100 uM pretreated for 1 hr followed by addition of THP1 conditioned medium by western blot analysis; assay type: functional, cell-based
SH-SY5Y [14] = test: Effect on NO production in human SH-SY5Y cells by greiss assay; assay type: functional, cell-based
SH-SY5Y [15] = test: Neuroprotective activity against human SH-SY5Y cells assessed as inhibition of IFNgamma/LPS stimulated THP1 condition medium-induced cytotoxicity measured as cell viability at 100 uM for 1 hr followed by addition of THP1 conditioned medium for 24 hrs by LDH assay in presence of 1 uM dexamethasone; assay type: functional, cell-based
SH-SY5Y [16] = test: Neuroprotective against IFNgamma/LPS stimulated THP1 condition medium-induced neurotoxicity in human SH-SY5Y cells assessed as increase in cytoplasmic IkappaBalpha level at 100 uM pretreated for 1 hr followed by addition of THP1 conditioned medium by western blot analysis; assay type: functional, cell-based
SH-SY5Y [17] = test: Neuroprotective against IFNgamma/LPS stimulated THP1 condition medium-induced neurotoxicity in human SH-SY5Y cells assessed as inhibition of RelA/p65 nuclear translocation at 100 uM pretreated for 1 hr followed by addition of THP1 conditioned medium by western blot analysis; assay type: functional, cell-based
SH-SY5Y [18] = test: Neuroprotective against IFNgamma/LPS stimulated THP1 condition medium-induced neurotoxicity in human SH-SY5Y cells assessed as increase in nNOS activity at 100 uM pretreated for 1 hr followed by addition of THP1 conditioned medium; assay type: functional, cell-based

**Q.** For `CN1C(=O)[C@]23CC4=CC=C[C@H](O)[C@H]4N2C(=O)[C@@]1(CO)SS3`, which Activity (SH-SY5Y [1]) is on record?
**A.** The Activity was “Active”.

**Q.** What does the source list for `N=C(N)NCCC[C@H](NC(=O)[C@@H]1CCCN1C(=O)CN)C(=O)O` (H-Gly-Pro-Arg-OH)?
**A.** half-life [2]: 1.58 h; Activity (SH-SY5Y [3]): 3.72 µmol/L; Activity (SH-SY5Y [4]): 3.74 µmol/L; Activity (SH-SY5Y [5]): 3.68 µmol/L; Activity (SH-SY5Y [6]): 3.05 µmol/L; Activity (SH-SY5Y [7]): 2.64 µmol/L

**Q.** For `C[C@@]1(C(=O)N[C@@H](CCCNC(=N)N)C(=O)O)CCCN1C(=O)CN` (H-Gly-[αMeP]-Arg-OH), which half-life [2] is on record?
**A.** The half-life was 132 h.

**Q.** What about the Activity (SH-SY5Y [8]) of the same compound?
**A.** Its Activity is “Non-toxic”.

**Q.** What about the Activity (SH-SY5Y [9]) of the same compound?
**A.** Its Activity is 70%.

**Q.** And the inhibition (SH-SY5Y [10])?
**A.** The inhibition was “Active”.

**Q.** And the Activity (SH-SY5Y [3])?
**A.** Its Activity is 3.78 µmol/L.

**Q.** And the Activity (SH-SY5Y [4])?
**A.** Its Activity is 3.71 µmol/L.

**Q.** And the Activity (SH-SY5Y [5])?
**A.** The Activity was 3.72 µmol/L.

**Q.** What about the Activity (SH-SY5Y [6]) of the same compound?
**A.** The Activity was 3.57 µmol/L.

**Q.** What about the Activity (SH-SY5Y [7]) of the same compound?
**A.** The Activity was 2.92 µmol/L.

**Q.** And the inhibition (SH-SY5Y [11])?
**A.** The inhibition was “Active”.

**Q.** What about the inhibition (SH-SY5Y [12]) of the same compound?
**A.** Its inhibition is “Active”.

**Q.** And the Activity (SH-SY5Y [13])?
**A.** Its Activity is “Active”.

**Q.** What about the Activity (SH-SY5Y [14]) of the same compound?
**A.** The Activity was “inactive”.

**Q.** What about the Activity (SH-SY5Y [15]) of the same compound?
**A.** The Activity was “Active”.

**Q.** With `C[C@@]1(C(=O)N[C@@H](Cc2cnc[nH]2)C(=O)O)CCCN1C(=O)CN` (H-Gly-[αMeP]-His-OH) as the compound, how does the half-life [2] read?
**A.** The half-life was 118 h.

**Q.** What about the Activity (SH-SY5Y [8]) of the same compound?
**A.** Its Activity is “Non-toxic”.

**Q.** What about the Activity (SH-SY5Y [9]) of the same compound?
**A.** Its Activity is 70%.

**Q.** And the inhibition (SH-SY5Y [10])?
**A.** Its inhibition is “Active”.

**Q.** And the Activity (SH-SY5Y [3])?
**A.** Its Activity is 3.81 µmol/L.

**Q.** And the Activity (SH-SY5Y [4])?
**A.** The Activity was 3.76 µmol/L.

**Q.** What about the Activity (SH-SY5Y [5]) of the same compound?
**A.** Its Activity is 3.74 µmol/L.

**Q.** What about the Activity (SH-SY5Y [6]) of the same compound?
**A.** Its Activity is 2.96 µmol/L.

**Q.** What about the Activity (SH-SY5Y [7]) of the same compound?
**A.** Its Activity is 2.38 µmol/L.

**Q.** What about the inhibition (SH-SY5Y [11]) of the same compound?
**A.** The inhibition was “Active”.

**Q.** What about the inhibition (SH-SY5Y [12]) of the same compound?
**A.** The inhibition was “Active”.

**Q.** What about the Activity (SH-SY5Y [13]) of the same compound?
**A.** The Activity was “Active”.

**Q.** What about the Activity (SH-SY5Y [16]) of the same compound?
**A.** Its Activity is “Active”.

**Q.** And the inhibition (SH-SY5Y [17])?
**A.** Its inhibition is “Active”.

**Q.** What about the Activity (SH-SY5Y [14]) of the same compound?
**A.** Its Activity is “inactive”.

**Q.** And the Activity (SH-SY5Y [15])?
**A.** The Activity was “Active”.

**Q.** And the Activity (SH-SY5Y [18])?
**A.** Its Activity is “Active”.

**Q.** For `C[C@@]1(C(=O)N[C@@H](CCCCN)C(=O)O)CCCN1C(=O)CN` (H-Gly-[αMeP]-Lys-OH), which half-life [2] is on record?
**A.** The half-life was 51.6 h.

**Q.** And the Activity (SH-SY5Y [8])?
**A.** Its Activity is “Non-toxic”.

**Q.** And the Activity (SH-SY5Y [9])?
**A.** Its Activity is 70%.

**Q.** What about the inhibition (SH-SY5Y [10]) of the same compound?
**A.** The inhibition was “Active”.

**Q.** And the Activity (SH-SY5Y [3])?
**A.** The Activity was 3.7 µmol/L.

**Q.** And the Activity (SH-SY5Y [4])?
**A.** Its Activity is 3.68 µmol/L.

**Q.** And the Activity (SH-SY5Y [5])?
**A.** The Activity was 3.74 µmol/L.

**Q.** And the Activity (SH-SY5Y [6])?
**A.** The Activity was 2.98 µmol/L.

**Q.** What about the Activity (SH-SY5Y [7]) of the same compound?
**A.** Its Activity is 2.65 µmol/L.

**Q.** What about the inhibition (SH-SY5Y [11]) of the same compound?
**A.** The inhibition was “Active”.

**Q.** And the inhibition (SH-SY5Y [12])?
**A.** Its inhibition is “Active”.

**Q.** What about the Activity (SH-SY5Y [13]) of the same compound?
**A.** The Activity was “Active”.

**Q.** What about the Activity (SH-SY5Y [14]) of the same compound?
**A.** The Activity was “inactive”.

**Q.** What about the Activity (SH-SY5Y [15]) of the same compound?
**A.** Its Activity is “Active”.
